Each structure is given as a SMILES string.

In data set [1] the target is [MCL-1]-[compound of formula (I)]-[CRBN/DDB1] complex (Homo sapiens, UniProt Q07820+Q96SW2). Kind of data set: HTRF ternary complex assay. The note with it: ternary complex formation; read-out: HTRF ternary complex Average pEC50 by molecule (converted). It counts as binding. The essentials:
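hMcl-1 and CRBN (mix at 48 nM and 105.6 nM) with Streptavidin-Eu cryptate and anti-6×His-d2 in PPI Europium buffer with 2 mM DTT; compounds in dose-response, 0.5% DMSO. Incubated 180 min at 25° C, TR-FRET 665/620 read. Bell-shaped curve fitted by Gaussian; EC50 reported.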
For orientation: TR-FRET usually uses a lanthanide donor and a delayed reading to cut background.

A further data set concerns ARH-77 cells. Nature of the data set: Cell viability assay (CellTiter-Glo), ARH-77. Format: cell-based. The following applies: Homo sapiens, ARH-77, 24 hours incubation, 1% FBS, read-out: Average pIC50 by molecule ARH-77 (converted). The essentials:
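Luminescent ATP readout (CellTiter-Glo) at 24 hours measured viability, expressed relative to DMSO-treated wells. Compound was added directly to the medium as a 9–12-point threefold series starting at 30 uM, at 0.5% final DMSO. The medium contained FBS reduced to 1%.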
In general terms: In ATP-based viability assays light output follows the ATP content of the culture.

Another data set has as its system iCELL Cardiomyocytes. Kind of data set: Cardiac safety: caspase 3 and 7 activation (Caspase-Glo 3/7) in iCELL Cardiomyocytes. Format: cell-based. The source says:
The effect of various compounds of the invention and a reference compound AZD5991 on cardiac safety was investigated by the evaluation of caspase 3 and 7 activation using Caspase-Glo 3/7 Assay (Promega; G8092) in iCELL™ Cardiomyocytes from FUJIFILM Cellular Dynamics (Catalog number: 11713). In the Caspase-Glo® 3/7 Assay, the luminescence (measured as Relative Luciferase Units, RLU) is proportional to the amount of caspase activity present in each sample.
The assay is initiated by thawing and seeding iCell® Cardiomyocytes as specified in the User Guide. After 48 hours, the cells are washed to remove unattached cells and debris and immediately treated with compounds or DMSO diluted in the maintenance medium (FCDI; cat: M1003). Compound concentrations used in this assay: 7 points 1/3 dilution curve starting at 100 uM. After 24 hours of incubation with compounds, caspase activity is measured by the addition of the Caspase-Glo® 3/7 Reagent followed by the luminescence measurement.
The analysis of the results is performed by calculation of the fold change in caspase 3/7 activity at a given compound concentration. Fold change is calculated with the formula: […]
where: • RLU Xi is the Relative Luciferase Units of sample I; • RLU BG is the Background Relative Luciferase Units; • RLU C is the Relative Luciferase Units of Control (DMSO).
The experiments were performed in technical duplicates.

The next data set has as its system MV-4-11 cells. Nature of the data set: Induction of apoptosis in cancer cells, flow cytometry (Annexin V/PI). Format: cell-based. The note with it: MV-4-11 cells, 1, 3, 10, 30 and 100 nM, 24 hours. The protocol:
The effect of compound 204 of the invention MV-4-11 cells was investigated using the following protocol.
MV-4-11 cells were seeded on 24-well plates (1 ml) in growth medium containing 1% FBS. Immediately after seeding, compounds in appropriate concentrations were added directly to the cell culture medium. After 24 hours incubation, cells were washed twice with cold DPBS and the staining was performed using the FITC Annexin V Apoptosis Detection Kit I (BD Pharmingen; 556547). Samples were then analyzed by flow cytometry (LSR Fortessa X-20; BD Biosciences) within 1 hr. Results were evaluated using FlowJo (V10) software.
FIG. 6 presents the induction of apoptosis in MV-4-11 cells treated with 204 at 1, 3, 10, 30, and 100 nM concentration for 24 hours, as indicated.

Sequence of [MCL-1]-[compound of formula (I)]-[CRBN/DDB1] complex (Q07820 whole entry): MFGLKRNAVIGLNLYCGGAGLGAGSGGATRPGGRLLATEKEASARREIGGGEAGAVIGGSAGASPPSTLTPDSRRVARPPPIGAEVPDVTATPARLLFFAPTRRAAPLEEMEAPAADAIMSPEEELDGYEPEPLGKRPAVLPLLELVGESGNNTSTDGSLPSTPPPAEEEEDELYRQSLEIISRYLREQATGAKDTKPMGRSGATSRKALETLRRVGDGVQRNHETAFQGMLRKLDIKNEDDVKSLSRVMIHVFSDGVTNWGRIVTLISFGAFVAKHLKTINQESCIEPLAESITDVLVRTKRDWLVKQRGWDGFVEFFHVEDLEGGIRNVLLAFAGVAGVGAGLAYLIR
Sequence of [MCL-1]-[compound of formula (I)]-[CRBN/DDB1] complex (Q96SW2 whole entry): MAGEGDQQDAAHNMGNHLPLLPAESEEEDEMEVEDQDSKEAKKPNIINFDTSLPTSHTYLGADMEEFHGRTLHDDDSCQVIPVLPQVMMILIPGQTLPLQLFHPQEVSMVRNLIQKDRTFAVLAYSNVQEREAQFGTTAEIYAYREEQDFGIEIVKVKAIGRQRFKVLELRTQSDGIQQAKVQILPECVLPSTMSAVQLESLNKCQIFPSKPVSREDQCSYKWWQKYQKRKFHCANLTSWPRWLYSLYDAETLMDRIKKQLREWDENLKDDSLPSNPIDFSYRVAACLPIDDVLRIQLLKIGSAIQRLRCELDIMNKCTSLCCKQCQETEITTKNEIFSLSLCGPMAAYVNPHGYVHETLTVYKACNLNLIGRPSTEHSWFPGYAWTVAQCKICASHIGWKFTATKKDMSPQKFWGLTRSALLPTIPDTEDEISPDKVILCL
Sequence of [MCL-1]-[compound of formula (I)]-[CRBN/DDB1] complex (Q16531 whole entry partner): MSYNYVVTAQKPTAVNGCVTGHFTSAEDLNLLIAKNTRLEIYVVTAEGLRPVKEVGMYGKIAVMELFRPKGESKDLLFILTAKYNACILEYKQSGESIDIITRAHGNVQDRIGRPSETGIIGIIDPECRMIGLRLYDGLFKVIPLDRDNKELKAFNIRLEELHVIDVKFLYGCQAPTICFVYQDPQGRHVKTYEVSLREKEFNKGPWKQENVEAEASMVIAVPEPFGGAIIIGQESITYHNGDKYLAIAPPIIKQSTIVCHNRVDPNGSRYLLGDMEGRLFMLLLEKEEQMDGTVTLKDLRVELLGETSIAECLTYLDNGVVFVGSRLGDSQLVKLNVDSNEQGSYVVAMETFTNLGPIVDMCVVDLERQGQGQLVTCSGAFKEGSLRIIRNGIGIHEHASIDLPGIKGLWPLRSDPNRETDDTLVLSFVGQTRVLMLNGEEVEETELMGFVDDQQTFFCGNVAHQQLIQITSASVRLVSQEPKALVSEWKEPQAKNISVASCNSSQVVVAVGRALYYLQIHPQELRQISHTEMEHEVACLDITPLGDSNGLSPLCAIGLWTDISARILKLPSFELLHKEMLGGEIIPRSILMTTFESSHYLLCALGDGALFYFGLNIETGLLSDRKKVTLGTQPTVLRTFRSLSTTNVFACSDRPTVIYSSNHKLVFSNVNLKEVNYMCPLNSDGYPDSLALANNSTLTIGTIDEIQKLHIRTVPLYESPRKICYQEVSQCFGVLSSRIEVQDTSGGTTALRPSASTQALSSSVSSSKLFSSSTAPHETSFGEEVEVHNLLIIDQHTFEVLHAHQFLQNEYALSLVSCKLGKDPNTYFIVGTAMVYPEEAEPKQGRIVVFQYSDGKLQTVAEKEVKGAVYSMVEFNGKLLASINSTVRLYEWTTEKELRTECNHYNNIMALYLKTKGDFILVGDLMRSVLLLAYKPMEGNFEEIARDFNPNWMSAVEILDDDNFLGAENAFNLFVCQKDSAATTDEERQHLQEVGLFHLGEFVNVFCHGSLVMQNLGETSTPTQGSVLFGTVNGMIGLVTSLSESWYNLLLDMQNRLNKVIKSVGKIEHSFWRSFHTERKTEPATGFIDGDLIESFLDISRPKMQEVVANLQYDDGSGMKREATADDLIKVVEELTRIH

As to `Cc1nn(C)c(C)c1-c1c(Cl)ccc2c(CCCOc3cccc4cc(F)ccc34)c(C(=O)O)n(CCN3CCN(C(=O)Cn4c(C)nc5c(C(=O)NC6CCC(=O)NC6=O)cccc54)CC3)c12` (stereo not shown) [Compound 268, 6-chloro-1-{2-[4-(2-{4-[(2,6-dioxopiperidin-3-yl)carbamoyl]-2-methyl-1H-1,3-benzodiazol-1-yl}acetyl)piperazin-1-yl]ethyl}-3-{3-[(6-fluoronaphthalen-1-yl)oxy]propyl}-7-(1,3,5-trimethyl-1H-pyrazol-4-yl)-1H-indole-2-carboxylic acid], the EC50 in data set [1] was below 0.01 µM.

Regarding `Cc1nn2c(c1-c1c(Cl)ccc3c(CCCOc4cccc5cc(F)ccc45)c(C(=O)O)n(CCN4CCN(C(=O)COc5cccc6c5CN(C5CCC(=O)NC5=O)C6=O)CC4)c13)COCC2` (stereo not shown) [Compound 346, 6-Chloro-1-(2-(4-(2-((2-(2,6-dioxopiperidin-3-yl)-1-oxoisoindolin-4-yl)oxy)acetyl)piperazin-1-yl)ethyl)-3-(3-((6-fluoronaphthalen-1-yl)oxy)propyl)-7-(2-methyl-6,7-dihydro-4H-pyrazolo[5,1-c][1,4]oxazin-3-yl)-1H-indole-2-carboxylic acid], the IC50 in the data set with ARH-77 cells was above 10 µM.

Turning to `Cc1nn(C)c(C)c1-c1c(Cl)ccc2c(CCCOc3cccc4ccccc34)c(C(=O)O)n(CCN3CCN(C(=O)COc4cccc5c4C(=O)N(C4CCC(=O)NC4=O)C5=O)CC3)c12` (stereo not shown) [Compound 204, 6-chloro-1-(2-(4-(2-((2-(2,6-dioxopiperidin-3-yl)-1,3-dioxoisoindolin-4-yl)oxy)acetyl)piperazin-1-yl)ethyl)-3-(3-(naphthalen-1-yloxy)propyl)-7-(1,3,5-trimethyl-1H-pyrazol-4-yl)-1H-indole-2-carboxylic acid], the “Fold change at 1.2 uM (caspase 3/7 activity in cardiomyocytes)” value in the data set on iCELL Cardiomyocytes (1.2 uM, 24 hours incubation, vs DMSO) is on record as at most 1.5 ± 0.2. Also, the “activity in caspase activity assay in cardiomyocytes” value in the data set with iCELL Cardiomyocytes (as opposed to reference compound AZD5991) is given as “little to no activity”. Besides, in the data set on MV-4-11 cells, the “population of late apoptotic/cell death (Annexin+/PI+) cells” value is recorded as “concentration dependent increase”.

On to `Cc1nn(C)c(C)c1-c1c(Cl)ccc2c(CCCOc3cccc4cc(F)ccc34)c(C(=O)O)n(CCN3CCN(C(=O)COc4cccc5c4CN(C4CCC(=O)NC4=O)C5=O)CC3)c12` (stereo not shown) [Compound 220, 6-chloro-1-{2-[4-(2-{[2-(2,6-dioxopiperidin-3-yl)-1-oxo-2,3-dihydro-1H-isoindol-4-yl]oxy}acetyl)piperazin-1-yl]ethyl}-3-{3-[(6-fluoronaphthalen-1-yl)oxy]propyl}-7-(1,3,5-trimethyl-1H-pyrazol-4-yl)-1H-indole-2-carboxylic acid], for which the EC50 in data set [1] was below 0.1 µM. Besides, in the data set with ARH-77 cells, the IC50 was above 10 µM.
